Paper PMC7475180, “The Arabidopsis TRM61/TRM6 complex is a bona fide tRNA N^1-methyladenosine methyltransferase” (Journal of Experimental Botany, 2020)

Target: T1, AtTRM61/AtTRM6 complex (AtTRM61-His/AtTRM6-GST) (Arabidopsis thaliana, UniProt F4K6U9)
T1 construct: gene TRM61; CDSs of AtTRM61 (pET28a+, His tag) and AtTRM6 (pGEX-4T-2, GST tag) co-expressed in E. coli, Ni-NTA purified; tag removal not mentioned; heterodimeric complex; with tRNA (adenine(58)-N(1))-methyltransferase non-catalytic subunit TRM6
T1 sequence (F4K6U9 1-318): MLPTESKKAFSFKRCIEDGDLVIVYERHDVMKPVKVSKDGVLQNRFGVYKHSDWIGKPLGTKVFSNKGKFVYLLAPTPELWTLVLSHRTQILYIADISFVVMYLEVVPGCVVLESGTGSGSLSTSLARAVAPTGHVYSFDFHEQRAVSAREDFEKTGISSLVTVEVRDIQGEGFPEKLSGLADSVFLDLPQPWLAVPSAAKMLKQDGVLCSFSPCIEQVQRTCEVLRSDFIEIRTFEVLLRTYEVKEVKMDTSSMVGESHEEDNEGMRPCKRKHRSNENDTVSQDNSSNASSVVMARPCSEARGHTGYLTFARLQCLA
T1 sequence (O80846 1-446 partner): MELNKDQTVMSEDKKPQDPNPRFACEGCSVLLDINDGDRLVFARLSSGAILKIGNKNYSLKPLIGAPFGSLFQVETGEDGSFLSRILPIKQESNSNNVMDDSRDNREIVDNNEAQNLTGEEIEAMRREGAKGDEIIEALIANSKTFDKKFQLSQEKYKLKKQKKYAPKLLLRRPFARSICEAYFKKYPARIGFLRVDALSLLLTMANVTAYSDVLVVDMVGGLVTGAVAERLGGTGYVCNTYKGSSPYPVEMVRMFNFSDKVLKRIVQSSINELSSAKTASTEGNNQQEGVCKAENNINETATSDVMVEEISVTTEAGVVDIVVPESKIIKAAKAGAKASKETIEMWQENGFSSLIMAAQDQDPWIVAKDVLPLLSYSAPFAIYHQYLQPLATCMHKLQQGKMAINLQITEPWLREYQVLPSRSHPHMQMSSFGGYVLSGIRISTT
Test: m1A formation on tRNA, anti-m1A immuno-northern blot
Format: biochemical
Conditions: methyl donor, 30 mM AdoMet as printed; 150 nM RNA substrate (trm6-506 yeast tRNA or in vitro transcribed Arabidopsis tRNAiMet); 15 nM protein; 30 °C, 30 min

## C[S+](CC[C@H](N)C(=O)O)C[C@H]1O[C@@H](n2cnc3c(N)ncnc32)[C@H](O)[C@@H]1O (stereo partly drawn) [S-adenosyl-L-methionine]
  m1A formation on tRNA, anti-m1A immuno-northern blot: The purified complex was then incubated with a methyl donor (SAM)
